Ratio data for 39 molecules are collected here from ChEMBL document CHEMBL2069225, “Design, synthesis and molecular docking studies of sinomenine derivatives” (Bioorg Med Chem Lett, 2012).

The test system of this assay is RAW264.7. As to the kind of experiment: Inhibition of NFkappaB in LPS-challenged mouse RAW264.7 cells assessed as ratio of NFkappaB transcriptional activity to thymidine kinase transcriptional activity at 100 uM incubated for 30 mins prior to LPS-challenge measured after 6 hrs by dual luciferase reporter gene assay (reference value: 5.18+/-0.98). Format: cell-based.

For the molecule `COC1=C[C@@H]2[C@@H]3Cc4ccc(OC)c(OCc5ccc([N+](=O)[O-])cc5)c4[C@]2(CCN3C)CC1=O`, the Ratio turned out to be 4.37.
As for `COC1=C[C@@H]2[C@@H]3Cc4ccc(OC)c(OCc5cn(Cc6ccc([N+](=O)[O-])cc6)nn5)c4[C@]2(CCN3C)CC1=O`, the figure is 3.63.
`COC1=C[C@@H]2[C@@H]3Cc4ccc(OC)c(O)c4[C@]2(CCN3C)CC1=O`: the Ratio was determined as 4.41.
Consider `COC1=C[C@@H]2[C@@H]3Cc4ccc(OC)c(OCc5cn(Cc6ccc(Br)cc6)nn5)c4[C@]2(CCN3C)CC1=O`, for which the Ratio stood at 4.19.
As to `COC1=C[C@@H]2[C@@H]3Cc4ccc(OC)c(OCc5cn(Cc6ccccc6)nn5)c4[C@]2(CCN3C)CC1=O`, the Ratio is 1.8.
As for `COC1=C[C@@H]2[C@@H]3Cc4ccc(OC)c(OCc5ccc(OC)cc5)c4[C@]2(CCN3C)CC1=O`, the figure is 4.85; as for `COC1=C[C@@H]2[C@@H]3Cc4ccc(OC)c(OCc5ccccc5[N+](=O)[O-])c4[C@]2(CCN3C)CC1=O`, 4.7.
On to `COC1=C[C@@H]2[C@@H]3Cc4ccc(OC)c(OCc5cn(Cc6ccccc6Cl)nn5)c4[C@]2(CCN3C)CC1=O`, for which the Ratio stood at 2.39.
Regarding `COC1=C[C@@H]2[C@@H]3Cc4ccc(OC)c(OCc5ccc(Br)cc5)c4[C@]2(CCN3C)CC1=O`, the Ratio came out at 4.82.
On to `COC1=C[C@@H]2[C@@H]3Cc4ccc(OC)c(OCc5ccc(F)cc5)c4[C@]2(CCN3C)CC1=O`, for which the Ratio is 4.22.
On to `COC1=C[C@@H]2[C@@H]3Cc4ccc(OC)c(OCc5cccc(C#N)c5)c4[C@]2(CCN3C)CC1=O`, for which the Ratio worked out at 4.28.
The value for `COC1=C[C@@H]2[C@@H]3Cc4ccc(OC)c(OCc5cn(Cc6ccccc6Br)nn5)c4[C@]2(CCN3C)CC1=O` was 2.08.
As for `COC1=C[C@@H]2[C@@H]3Cc4ccc(OC)c(OCc5cn(Cc6ccc(OC)cc6)nn5)c4[C@]2(CCN3C)CC1=O`, the figure is 3.12; as for `COC1=C[C@@H]2[C@@H]3Cc4ccc(OC)c(OCc5cn(Cc6ccccc6[N+](=O)[O-])nn5)c4[C@]2(CCN3C)CC1=O`, 2.32; as for `COC1=C[C@@H]2[C@@H]3Cc4ccc(OC)c(OCc5cn(Cc6ccc(C)cc6)nn5)c4[C@]2(CCN3C)CC1=O`, 3.37.
Turning to `COC1=C[C@@H]2[C@@H]3Cc4ccc(OC)c(OCc5cn(Cc6ccccc6C#N)nn5)c4[C@]2(CCN3C)CC1=O`, the Ratio came to 1.96.
In the case of `COC1=C[C@@H]2[C@@H]3Cc4ccc(OC)c(OCc5ccccc5C#N)c4[C@]2(CCN3C)CC1=O`, the Ratio was determined as 5.09.
For `COC1=C[C@@H]2[C@@H]3Cc4ccc(OC)c(OCc5cccc(Br)c5)c4[C@]2(CCN3C)CC1=O`, the Ratio was determined as 4.51.
As for `COC1=C[C@@H]2[C@@H]3Cc4ccc(OC)c(OCc5cn(Cc6ccccc6F)nn5)c4[C@]2(CCN3C)CC1=O`, the Ratio amounted to 3.13.
With `COC1=C[C@@H]2[C@@H]3Cc4ccc(OC)c(OCc5ccccc5C)c4[C@]2(CCN3C)CC1=O`, the Ratio was 4.91.
As to `COC1=C[C@@H]2[C@@H]3Cc4ccc(OC)c(OCc5cn(Cc6ccc(Cl)cc6Cl)nn5)c4[C@]2(CCN3C)CC1=O`, the Ratio was 2.74.
The value for `COC1=C[C@@H]2[C@@H]3Cc4ccc(OC)c(OCc5cccc(C)c5)c4[C@]2(CCN3C)CC1=O` was 4.71; that for `COC1=C[C@@H]2[C@@H]3Cc4ccc(OC)c(OCc5cn(Cc6cccc(Cl)c6)nn5)c4[C@]2(CCN3C)CC1=O` was 2.88.
With `COC1=C[C@@H]2[C@@H]3Cc4ccc(OC)c(OCc5cn(Cc6cccc(Br)c6)nn5)c4[C@]2(CCN3C)CC1=O`, the Ratio worked out at 2.46.
Take `COC1=C[C@@H]2[C@@H]3Cc4ccc(OC)c(OCc5ccccc5Br)c4[C@]2(CCN3C)CC1=O`: the Ratio was 5.03.
For the molecule `COC1=C[C@@H]2[C@@H]3Cc4ccc(OC)c(OCc5cn(Cc6ccc(F)cc6)nn5)c4[C@]2(CCN3C)CC1=O`, the Ratio was determined as 1.98.
As to `COC1=C[C@@H]2[C@@H]3Cc4ccc(OC)c(OCc5cn(Cc6c(Cl)cccc6Cl)nn5)c4[C@]2(CCN3C)CC1=O`, the Ratio was 3.44.
As to `COC1=C[C@@H]2[C@@H]3Cc4ccc(OC)c(OCc5cn(Cc6cccc(C#N)c6)nn5)c4[C@]2(CCN3C)CC1=O`, the Ratio worked out at 2.86.
Regarding `COC1=C[C@@H]2[C@@H]3Cc4ccc(OC)c(OCc5ccccc5F)c4[C@]2(CCN3C)CC1=O`, the Ratio worked out at 4.71.
On to `COC1=C[C@@H]2[C@@H]3Cc4ccc(OC)c(OCc5cccc([N+](=O)[O-])c5)c4[C@]2(CCN3C)CC1=O`, for which the Ratio was 4.18.
Regarding `COC1=C[C@@H]2[C@@H]3Cc4ccc(OC)c(OCc5cn(Cc6cccc([N+](=O)[O-])c6)nn5)c4[C@]2(CCN3C)CC1=O`, the Ratio is 3.17.
As for `COC1=C[C@@H]2[C@@H]3Cc4ccc(OC)c(OCc5cn(Cc6cccc(F)c6)nn5)c4[C@]2(CCN3C)CC1=O`, the Ratio stood at 3.04.
On to `COC1=C[C@@H]2[C@@H]3Cc4ccc(OC)c(OCc5cn(Cc6cccc(C)c6)nn5)c4[C@]2(CCN3C)CC1=O`, for which the Ratio turned out to be 2.98.
Turning to `COC1=C[C@@H]2[C@@H]3Cc4ccc(OC)c(OCc5cn(Cc6ccccc6C)nn5)c4[C@]2(CCN3C)CC1=O`, the Ratio came out at 3.
Turning to `COC1=C[C@@H]2[C@@H]3Cc4ccc(OC)c(OCc5cn(Cc6ccc(C(C)(C)C)cc6)nn5)c4[C@]2(CCN3C)CC1=O`, the Ratio is 3.26.
The value for `COC1=C[C@@H]2[C@@H]3Cc4ccc(OC)c(OCc5cn(Cc6ccc(Cl)cc6)nn5)c4[C@]2(CCN3C)CC1=O` was 2.22.
In the case of `COC1=C[C@@H]2[C@@H]3Cc4ccc(OC)c(OCc5ccc(C)cc5)c4[C@]2(CCN3C)CC1=O`, the Ratio came out at 5.24.
As for `COC1=C[C@@H]2[C@@H]3Cc4ccc(OC)c(OCc5cccc(F)c5)c4[C@]2(CCN3C)CC1=O`, the figure is 4.53.
Regarding `COC1=C[C@@H]2[C@@H]3Cc4ccc(OC)c(OCc5cn(Cc6ccc(C#N)cc6)nn5)c4[C@]2(CCN3C)CC1=O`, the Ratio was 3.61.
